From patent US20100267561A1, “HERBICIDAL PYRIDAZINONE DERIVATIVES” (priority 2007, published 2010)

Assays:
Test in all cases: Test C pre-/postemergence plant response
Type in all cases: in vivo
[1] = system: windgrass (Apera spica-venti)
Procedure, shortened: (§1)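 Ratings ran from 0 (no effect) to 100 (complete control) and were made visually against untreated controls 15–25 days after treatment in a controlled growth environment. Application was preemergence and, for some chemicals, postemergence at the 1- to 4-leaf stage (2–18 cm). Formulation was a non-phytotoxic solvent mixture with surfactant.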

[2] = system: winter barley (Hordeum vulgare)
Procedure, shortened: as §1

[3] = system: spring wheat (Triticum aestivum)
Procedure, shortened: as §1

canola (Brassica rapa) = system: canola (Brassica rapa)
Procedure, shortened: as §1

[4] = Preemergence, 8 g ai/ha, scale 0 to 100 (0 no effect, 100 complete control)
[5] = Preemergence, 16 g ai/ha, scale 0 to 100 (0 no effect, 100 complete control)
[6] = Preemergence, 31 g ai/ha, scale 0 to 100 (0 no effect, 100 complete control)
[7] = Preemergence, 62 g ai/ha, scale 0 to 100, 0 no effect, 100 complete control
[8] = Postemergence, 8 g ai/ha, scale 0 to 100, 0 no effect, 100 complete control
[9] = Postemergence, 16 g ai/ha, scale 0 to 100, 0 no effect, 100 complete control
[10] = Postemergence, 31 g ai/ha, scale 0 to 100, 0 no effect, 100 complete control
[11] = Postemergence, 62 g ai/ha, scale 0 to 100, 0 no effect, 100 complete control

Compound	Plant response rating, Windgrass [1, 4]	Plant response rating, Windgrass [1, 5]	Plant response rating, Windgrass [1, 6]	Plant response rating, Windgrass [1, 7]	Plant response rating, Barley, Winter [2, 4]	Plant response rating, Barley, Winter [2, 5]	Plant response rating, Barley, Winter [2, 6]	Plant response rating, Barley, Winter [2, 7]	Plant response rating, Wheat, Spring [3, 4]	Plant response rating, Wheat, Spring [3, 5]	Plant response rating, Wheat, Spring [3, 6]	Plant response rating, Wheat, Spring [3, 7]	Plant response rating, Windgrass [1, 8]	Plant response rating, Windgrass [1, 9]	Plant response rating, Windgrass [1, 10]	Plant response rating, Windgrass [1, 11]	Plant response rating, Canola (canola (Brassica rapa); [4])	Plant response rating, Canola (canola (Brassica rapa); [5])	Plant response rating, Canola (canola (Brassica rapa); [6])	Plant response rating, Canola (canola (Brassica rapa); [7])	other results
C#CCOC(=O)Oc1cnn(C)c(=O)c1-n1nc(-c2ccc(Cl)cc2)cc1C [Compound 58]	0	20	50	70	0	0	0	75	0	50	60	90	–	–	–	–	–	–	–	–	–
CCc1cc(-c2ccc(Cl)c(Cl)c2)nn1-c1c(O)cnn(C)c1=O [Compound 20]	–	–	–	–	–	–	–	–	–	–	–	–	0	0	50	75	–	–	–	–	Plant response rating, Canola (canola (Brassica rapa); [8]): 0; Plant response rating, Canola (canola (Brassica rapa); [9]): 0; Plant response rating, Canola (canola (Brassica rapa); [10]): 0; Plant response rating, Canola (canola (Brassica rapa); [11]): 0; Plant response rating, Barley, Winter [2, 8]: 0; Plant response rating, Barley, Winter [2, 9]: 0; Plant response rating, Barley, Winter [2, 10]: 20; Plant response rating, Barley, Winter [2, 11]: 20; Plant response rating, Wheat, Spring [3, 8]: 0; Plant response rating, Wheat, Spring [3, 9]: 25; Plant response rating, Wheat, Spring [3, 10]: 25; Plant response rating, Wheat, Spring [3, 11]: 60
Cc1cn(-c2ccc(Cl)cc2)nc1-c1c(O)cnn(C)c1=O [Compound 30, 4-[1-(4-chlorophenyl)-4-methyl-1H-pyrazol-3-yl]-5-hydroxy-2-methyl-3(2H)-pyridazinone]	–	–	–	35	0	0	0	15	0	0	0	20	–	–	–	–	0	0	0	0	–
CCc1cc(-c2ccc(Cl)cc2)nn1-c1c(OC(=O)OC(C)C)cnn(C)c1=O [Compound 41]	65	98	100	100	10	25	70	80	0	50	75	95	–	–	–	–	0	0	0	0	–
Cc1cc(-c2ccc(Cl)cc2)nn1-c1c(OS(=O)(=O)c2ccccc2[N+](=O)[O-])cnn(C)c1=O [Compound 51]	0	10	20	80	0	0	0	40	0	0	60	75	–	–	–	–	–	–	–	–	–
CCc1c(C)c(-c2ccc(Cl)cc2)nn1-c1c(O)cnn(C)c1=O [Compound 26, 4-[3-(4-chlorophenyl)-5-ethyl-4-methyl-1H-pyrazol-1-yl]-5-hydroxy-2-methyl-3(2H)-pyridazinone]	30	30	98	100	0	0	10	10	0	0	25	25	0	0	20	65	–	–	0	0	Plant response rating, Canola (canola (Brassica rapa); [8]): 0; Plant response rating, Canola (canola (Brassica rapa); [9]): 0; Plant response rating, Canola (canola (Brassica rapa); [10]): 0; Plant response rating, Canola (canola (Brassica rapa); [11]): 0; Plant response rating, Barley, Winter [2, 8]: 0; Plant response rating, Barley, Winter [2, 9]: 0; Plant response rating, Barley, Winter [2, 10]: 10; Plant response rating, Barley, Winter [2, 11]: 40; Plant response rating, Wheat, Spring [3, 8]: 10; Plant response rating, Wheat, Spring [3, 9]: 10; Plant response rating, Wheat, Spring [3, 10]: 30; Plant response rating, Wheat, Spring [3, 11]: 30
CCc1cc(-c2ccc(F)cc2)nn1-c1c(O)cnn(C)c1=O [Compound 25]	50	75	–	–	0	0	0	0	0	0	0	0	0	0	35	60	0	0	0	0	Plant response rating, Canola (canola (Brassica rapa); [8]): 0; Plant response rating, Canola (canola (Brassica rapa); [9]): 0; Plant response rating, Canola (canola (Brassica rapa); [10]): 0; Plant response rating, Canola (canola (Brassica rapa); [11]): 0; Plant response rating, Barley, Winter [2, 8]: 0; Plant response rating, Barley, Winter [2, 9]: 0; Plant response rating, Barley, Winter [2, 10]: 0; Plant response rating, Wheat, Spring [3, 8]: 0; Plant response rating, Wheat, Spring [3, 9]: 0; Plant response rating, Wheat, Spring [3, 10]: 0
Cc1cc(-c2ccc(Cl)cc2)nn1-c1c(OC(=O)c2ccccc2)cnn(C)c1=O [Compound 48]	0	0	35	80	0	0	0	70	0	35	60	75	–	–	–	–	–	–	–	–	–
Cn1ncc(O)c(-c2nn(-c3ccc(Cl)cc3)cc2Cl)c1=O [Compound 28]	20	30	75	85	0	0	0	40	0	0	35	50	–	–	–	–	0	0	0	0	–
